According to the NIST ThermoML archive (doi:10.1007/s10765-006-0122-6):

Details: for kinematic viscosity / surface tension liquid-gas: surface light scattering; for speed of sound / thermal diffusivity: dynamic light scattering

FC(C(F)(F)F)C(F)(F)F [1,1,1,2,3,3,3-heptafluoropropane]
Details	Critical temperature [K]	kinematic viscosity [m2/s]	speed of sound [m/s]	surface tension liquid-gas [mN/m]	thermal diffusivity [m2/s]
253.15 K, Liquid	–	2.88e-07	–	12.26	–
263.15 K, Liquid	–	2.54e-07	–	10.96	–
273.15 K, Liquid	–	2.28e-07	–	9.76	–
283.15 K, Liquid	–	2.05e-07	–	8.62	–
293.15 K, Liquid	–	1.83e-07	–	7.46	–
293.22 K, Liquid	–	–	437.4	–	3.66e-08
303.12 K, Liquid	–	–	397.8	–	3.5e-08
303.15 K, Liquid	–	1.66e-07	–	6.31	–
313.15 K, Liquid	–	1.52e-07	–	5.25	–
313.2 K, Liquid	–	–	356.8	–	3.26e-08
323.15 K, Liquid	–	1.36e-07	–	4.23	–
323.18 K, Liquid	–	–	315.5	–	3.14e-08
332.72 K, Liquid	–	–	275.1	–	2.95e-08
333.15 K, Liquid	–	1.22e-07	–	3.23	–
342.68 K, Liquid	–	–	231.6	–	2.76e-08
343.15 K, Liquid	–	1.08e-07	–	2.3	–
345.66 K, Gas	–	–	92.5	–	1.01e-07
348.02 K, Liquid	–	–	208.4	–	2.66e-08
348.15 K, Gas	–	–	90.6	–	9.3e-08
350.65 K, Gas	–	–	89.4	–	8.46e-08
353.02 K, Liquid	–	–	185.5	–	2.51e-08
353.15 K, Gas	–	–	87.1	–	7.64e-08
353.15 K, Liquid	–	9.43e-08	–	1.42	–
355.64 K, Gas	–	–	85.1	–	6.9e-08
358.09 K, Liquid	–	–	160.8	–	2.36e-08
358.14 K, Gas	–	–	82.9	–	6.06e-08
358.15 K, Liquid	–	8.74e-08	–	1.02	–
360.64 K, Gas	–	–	80.4	–	5.25e-08
363.09 K, Liquid	–	–	134.7	–	2.11e-08
363.14 K, Gas	–	–	77.9	–	4.41e-08
363.15 K, Liquid	–	8.08e-08	–	0.644	–
365.63 K, Gas	–	–	75.2	–	3.6e-08
365.9 K, Liquid	–	–	118.5	–	1.92e-08
367.67 K, Gas	–	–	72.8	–	2.91e-08
368.08 K, Liquid	–	–	106.1	–	1.72e-08
368.15 K, Liquid	–	7.34e-08	–	0.314	–
369.47 K, Gas	–	–	70.5	–	2.26e-08
370.15 K, Liquid	–	7.03e-08	–	0.2	–
370.2 K, Liquid	–	–	92.6	–	1.42e-08
370.76 K, Gas	–	–	68.7	–	1.78e-08
371.15 K, Liquid	–	6.79e-08	–	0.145	–
371.41 K, Liquid	–	–	83.8	–	1.21e-08
371.96 K, Gas	–	–	67	–	1.32e-08
372.15 K, Liquid	–	6.74e-08	–	–	–
372.19 K, Liquid	–	–	78.2	–	9.91e-09
372.96 K, Gas	–	–	65.3	–	9.21e-09
372.99 K, Liquid	–	–	72.8	–	7.88e-09
373.5 K, Liquid	–	–	68.3	–	6.11e-09
373.95 K, Gas	–	–	63.6	–	4.9e-09
373.99 K, Liquid	–	–	65.3	–	4.34e-09
374.45 K, Gas	–	–	–	–	2.65e-09
374.49 K, Liquid	–	–	–	–	2.24e-09
374.65 K, Gas	–	–	–	–	1.73e-09
374.67 K, Liquid	–	–	–	–	1.36e-09
Liquid, Visual observation in an unstirred cell	374.9	–	–	–	–
